Assay results reported in publication PMC5471928 (2017).

What was measured:
[1] = system: TBA (DNA, G4) GGTTGGTGTGGTTGG; experiment: UV-vis absorption titration; details: K+ 100 mM; 10 mM Tris-HCl pH 7.4; 5 µM c-exNDI; apparent
[2] = system: dsDNA (DNA, duplex) CAATCGGATCGAATTCGATCCGATTG; experiment: UV-vis absorption titration; details: K+ 100 mM; 10 mM Tris-HCl pH 7.4; 5 µM c-exNDI; apparent
[3] = system: c-kit1 (DNA, G4) AGGGAGGGCGCTGGGAGGAGGG; experiment: UV-vis absorption titration; details: K+ 100 mM; 10 mM Tris-HCl pH 7.4; 5 µM c-exNDI; apparent
[4] = system: hTel22 (DNA, G4) AGGGTTAGGGTTAGGGTTAGGG; experiment: circular dichroism (induced CD); details: K+ 100 mM; 4 µM G4, 16 µM c-exNDI
[5] = system: hTel22 (DNA, G4) AGGGTTAGGGTTAGGGTTAGGG; experiment: UV-vis absorption titration; details: 10 mM Tris-HCl pH 7.4, 5 µM c-exNDI, apparent
[6] = system: hTel22 (DNA, G4) AGGGTTAGGGTTAGGGTTAGGG; experiment: fluorescence titration; details: K+ 100 mM; 10 mM Tris-HCl pH 7.4; 5 µM c-exNDI; apparent
[7] = system: c-kit2 (DNA, G4) CCCGGGCGGGCGCGAGGGAGGGGAGG; experiment: fluorescence light-up; details: K+ 100 mM; 10 mM Tris-HCl pH 7.4; 5 µM each; quantum yield 0.13 against 0.08 free
[8] = system: c-myc (DNA, G4) TGAGGGTGGGTAGGGTGGGTAA; experiment: UV-vis absorption titration; details: K+ 100 mM; 10 mM Tris-HCl pH 7.4; 5 µM c-exNDI; apparent; main text prints error ± 0.3
[9] = system: ssDNA (DNA, single strand) GGATGTGAGTGTGAGTGTGAGG; experiment: UV-vis absorption titration; details: K+ 100 mM; 10 mM Tris-HCl pH 7.4; 5 µM c-exNDI; apparent
[10] = system: HRAS (DNA, G4) TCGGGTTGCGGGCGCAGGGCACGGGCG; experiment: UV-vis absorption titration; details: K+ 100 mM; 10 mM Tris-HCl pH 7.4; 5 µM c-exNDI; apparent; overall constant of 2:1 model

K1:1 [1]: 1.2±0.5x10^5 M^-1
K1:1 [2]: 7.41±0.03x10^3 M^-1
K1:1 [3]: 4.82±0.04x10^6 M^-1
binding [4]: yes
K1:1 ([5]; K+ 100 mM): 5.37±0.06x10^6 M^-1
K1:2 ([5]; Na+ 100 mM, overall constant of 2:1 model): 3.0±0.3x10^11 M^-2
K1:1 [6]: 5.34±0.03x10^6 M^-1
binding [7]: yes
K1:1 [8]: 3.43±0.03x10^7 M^-1
K1:1 [9]: 2.85±0.01x10^5 M^-1
K1:2 [10]: 3.0±0.3x10^10 M^-2
SMILES: CN(C)CCCn1c(=O)c2ccc3c(=O)n(CCCN(C)C)c(=O)c4c5[nH]c6ccccc6[nH]c5c(c1=O)c2c34
